From patent US12005092B2, “Herbal composition for breast cancer prevention” (priority 2021, dated 2024) come the findings set out here.

Values joined by “and” are separate entries in the source; they are usually repeats but may differ in a detail not shown here. Equal values may be shown once.

This data set has as its system MCF-7 cells. Description: MCF-7 cell viability, PrestoBlue Cell Viability Reagent. It is filed as cell-based, human. The following applies: individual ingredients, MCF-7, 2 mg/0.2 ml. The method, then:
In order to assess this activity, a well-established line of breast cancer cells used in cancer research was selected. MCF-7 is a widely studied cancer cell line derived from breast adenocarcinoma, it was proven to be a suitable model cell line for breast cancer investigations worldwide, including those regarding anticancer drugs.
The cells were cultured with growth medium and seeded in two 96 well plates incubated at 37 Celsius. The HCBCP solution was prepared by dissolving the powder in DPBS as per Table 1, below.
The obtained solutions were sterilized by 0.22-micron filtration.
An amount of 0.2 ml was applied in each test tube providing 2 mg of HCBCP. […]
After incubation period of 24 and 48 hours, cell viability was measured using PrestoBlue™ Cell Viability Reagent, according to manufacturer instructions.
Fluorescence was detected at excitation wavelength of 560 nm and an emission of 590 nm, using TECAN SPARK 10M microplate reader, at 24 and 48 hours after application. The fluorescence data is expressed as percentage of cell viability (%) compared to vehicle control.
Percentage of cell viability was calculated using the following formula: [(fluorescence of treated cells—mean background fluorescence)/(fluorescence of cells with vehicle control—mean background fluorescence)]×100, at 24 and 48 Hours after Application. […]

On to `O=c1c(O)c(-c2ccc(O)c(O)c2)oc2cc(O)cc(O)c12` [BF 2 Q, Quercetin], for which the “Mean cell viability (%)” value (24 h (Table 3)) turned out to be 42.10%. In addition, under “24 h, single replicates (Table 3)”, the “Cell Viability (%)” value is 44.43% and 44.39% and 40.25% and 39.33%.
